Laboratory results published in US6872834B2, “Phenyl-substituted indoles and indazoles” (Ortho-McNeil Pharmaceutical, Inc., priority 2000, dated 2005).

Each compound was assayed against T1, histamine H3 receptor (Homo sapiens, UniProt Q9Y5N1) (assay: [3H]-N-methylhistamine binding). Conditions: membranes from histamine H3 receptor-expressing SK-N-MC cells; 0.8 nM [3H]-N-methylhistamine; 45 minutes at 25° C.
T1 construct: expressed in transfected cells; membranes
Experimental: 1(A) Transfection of Cells with Human Histamine Receptor
A 10 cm tissue culture dish with a confluent monolayer of SK-N-MC cells was split two days prior to transfection. Using sterile technique the media was removed and the cells were detached from the dish by the addition of trypsin. One fifth of the cells were then placed onto a new 10 cm dish. Cells were grown in a 37° C. incubator with 5% CO2 in Minimal Essential Media Eagle with 10% Fetal Bovine Serum. After two days cells were approximately 80% confluent. These were removed from the dish with trypsin and pelleted in a clinical centrifuge. […] One μg supercoiled H3 receptor cDNA was added to the cells and mixed. The voltage for the electroporation was set at 0.25 kV, the capacitance is set at 960 μF.
After electroporation the cells were diluted into 10 mL complete media and plated onto four 10 cm dishes. Due to the variability in the efficiency of electroporation, four different concentrations of cells were plated. The ratios used were: 1:20, 1:10, and 1:5, with the remainder of the cells being added to the fourth dish. The cells were allowed to recover for 24 hours before adding the selection media (complete media with 600 μg/ml G418). After 10 days dishes were analyzed for surviving colonies of cells. Dishes with well-isolated colonies were used. Cells from individual colonies were isolated and tested. SK-N-MC cells were used because they give efficient coupling for inhibition of adenylate cyclase. The clones that gave the most robust inhibition of adenylate cyclase in response to histamine were used for further study.
1(B) [3H]-N-methylhistamine Binding
Cell pellets from histamine H3 receptor-expressing SK-N-MC cells were homogenized in 20 mM TrisHCl/0.5 mM EDTA. Supernatants from a 800 g spin were collected, reccentrifuged at 30,000 g for 30 minutes. Pellets were rehomogenized in 50 mM Tris/5 mM EDTA (pH 7.4). Membranes were incubated with 0.8 nM [^3H]-N-methylhistamine plus/minus test compounds for 45 minutes at 25° C. and harvested by rapid filtration over GF/C glass fiber filters (pretreated with 0.3% polyethylenimine) followed by four washes with ice cold buffer. Filters were dried, added to 4 mL scintillation cocktail and then counted on a liquid scintillation counter. Non-specific binding was defined with 10 μM histamine.

T1 sequence (Q9Y5N1 whole entry): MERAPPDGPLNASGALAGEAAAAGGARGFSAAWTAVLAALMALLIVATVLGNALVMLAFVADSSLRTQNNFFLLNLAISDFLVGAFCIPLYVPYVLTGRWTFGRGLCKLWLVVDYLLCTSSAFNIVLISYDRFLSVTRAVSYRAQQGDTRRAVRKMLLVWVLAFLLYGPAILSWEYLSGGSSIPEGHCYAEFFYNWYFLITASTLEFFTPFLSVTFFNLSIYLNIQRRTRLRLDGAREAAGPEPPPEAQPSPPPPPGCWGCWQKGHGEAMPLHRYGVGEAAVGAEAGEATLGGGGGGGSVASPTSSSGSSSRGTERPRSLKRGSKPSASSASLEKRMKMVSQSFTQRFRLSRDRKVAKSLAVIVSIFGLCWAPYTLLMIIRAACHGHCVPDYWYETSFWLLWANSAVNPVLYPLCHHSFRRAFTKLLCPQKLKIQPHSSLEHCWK

SMILES	Ki
CS(=O)(=O)n1c(-c2ccc(OCCCN3CCCCC3)cc2)cc2ccccc21 [Example 1, 2-[4-[3-Piperidinopropoxy]phenyl)-1-(methylsulfonyl)-1H-indole]	0.007 µM
c1ccc2[nH]c(-c3ccc(OCCCN4CCCCC4)cc3)cc2c1 [Example 2, 2-[4-(3-Piperidinopropoxy]phenyl)-1H-indole]	0.048 µM
CN1CCCC1CCOc1ccc(-c2cc3ccccc3n2S(C)(=O)=O)cc1 (centres unmarked) [Example 3, 2-[4-[2-[1-(methyl)-2-pyrrolidinyl]ethoxy]phenyl)-1-(methylsulfonyl)-1H-indole]	0.077 µM
CN1CCCC1CCOc1ccc(-c2cc3ccccc3[nH]2)cc1 (centres unmarked) [Example 4, 2-[4-[2-[1-(methyl)-2-pyrrolidinyl]ethoxy]phenyl)-1H-indole]	0.1 µM
CN1CCC(Oc2ccc(-c3cc4ccccc4n3S(C)(=O)=O)cc2)CC1 [Example 5, 2-[4-[1-(methyl)-4-piperidinyl]oxyphenyl]-1-(methylsulfonyl)-1H-indole]	0.107 µM
CN1CCC(Oc2ccc(-c3cc4ccccc4[nH]3)cc2)CC1 [Example 6, 2-[4-[1-(methyl)-4-piperidinyl]oxyphenyl] 1H-indole]	0.39 µM
CN(C)CCCOc1ccc(-c2cc3ccccc3n2S(C)(=O)=O)cc1 [Example 7, 2-[4-[3-Dimethylaminopropoxy]phenyl]-1-(methylsulfonyl)-1H-indole]	0.12 µM
CN(C)CCCOc1ccc(-c2cc3ccccc3[nH]2)cc1 [Example 8, 2-[4-[3-Dimethylaminopropoxy]phenyl] 1H-indole]	0.5 µM
CS(=O)(=O)n1c(-c2ccc(OCc3ccncc3)cc2)cc2ccccc21 [Example 9, 2-[4-[4-Pyridinyl]methoxyphenyl]-1-(methylsulfonyl)-1H-indole]	5 µM

Continued, values first:

Ki	SMILES
0.369 µM	CCN(CC)CCOc1ccc(-c2cc3ccccc3n2S(C)(=O)=O)cc1 [Example 10, 2-[4-[2-Diethylaminoethoxy]phenyl]-1-(methylsulfonyl)-1H-indole]
0.523 µM	CCN(CC)CCOc1ccc(-c2cc3ccccc3[nH]2)cc1 [Example 11, 2-[4-[2-Diethylaminoethoxy]phenyl]-1H-indole]
0.033 µM	CS(=O)(=O)n1c(-c2cccc(OCCCN3CCCCC3)c2)cc2ccccc21 [Example 15, 2-[3-[3-Piperidinopropoxy]phenyl)-1-(methylsulfonyl)-1H-indole]
2 µM	CN1CCN(CCCOc2ccc(-c3cc4ccccc4[nH]3)cc2)CC1 [Example 16, 2-(4-(3-(4-Methylpiperazino)propoxy)phenyl)indole]
3 µM	CN1CCN(CCCOc2ccc(-c3cc4cc(Cl)ccc4n3S(C)(=O)=O)cc2)CC1 [Example 17]
